# Results taken from patent US20250034216A1, “STEREOSELECTIVE COVALENT LIGANDS FOR ONCOGENIC AND IMMUNOLOGICAL PROTEINS” (The Scripps Research Institute, priority 2021, published 2025).
# Molecular target: T1, CPT1A_C96 (Homo sapiens, UniProt P50416)
# T1 construct: endogenous in cells; host or cells: 22Rv1
# T1 sequence (P50416 1-773): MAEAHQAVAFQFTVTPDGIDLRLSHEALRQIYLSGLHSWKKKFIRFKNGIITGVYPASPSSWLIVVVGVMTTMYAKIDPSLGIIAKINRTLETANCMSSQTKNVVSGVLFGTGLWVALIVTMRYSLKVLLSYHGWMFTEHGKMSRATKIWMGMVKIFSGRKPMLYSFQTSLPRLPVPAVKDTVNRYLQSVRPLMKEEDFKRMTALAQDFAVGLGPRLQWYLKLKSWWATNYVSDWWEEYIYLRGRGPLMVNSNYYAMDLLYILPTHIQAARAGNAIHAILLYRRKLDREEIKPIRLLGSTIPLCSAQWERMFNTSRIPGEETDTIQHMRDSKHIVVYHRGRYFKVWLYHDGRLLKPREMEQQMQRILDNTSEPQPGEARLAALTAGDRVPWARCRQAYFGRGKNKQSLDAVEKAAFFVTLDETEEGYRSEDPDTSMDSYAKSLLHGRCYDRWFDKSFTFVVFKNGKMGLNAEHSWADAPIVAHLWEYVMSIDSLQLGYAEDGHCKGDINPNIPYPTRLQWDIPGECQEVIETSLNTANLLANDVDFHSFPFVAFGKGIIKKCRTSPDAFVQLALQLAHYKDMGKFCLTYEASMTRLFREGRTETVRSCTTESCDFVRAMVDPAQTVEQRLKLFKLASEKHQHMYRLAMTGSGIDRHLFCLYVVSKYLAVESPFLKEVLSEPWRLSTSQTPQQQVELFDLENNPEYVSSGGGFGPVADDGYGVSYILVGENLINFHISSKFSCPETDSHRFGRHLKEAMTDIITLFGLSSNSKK
# Test: IA-DTB cysteine engagement
# Format: binding
# Settings: 22Rv1 cells, 20 μM probe, 1 h, relative to DMSO
# Summary of the method: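 Read-out is TMT-based cysteine engagement, expressed as each reporter ion intensity divided by the average of the DMSO channels. Before that, probe-treated cell lysates were capped with IA-DTB, digested, enriched on streptavidin and TMT-tagged. PSMs with DMSO summed intensity <10,000 or DMSO CV >0.5 were excluded.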
row,SMILES,% engagement CPT1A_C96
1,"C=CC(=O)N1C[C@H](c2ccc(Br)cc2)[C@H]1C(=O)Nc1cccc2cccnc12 [MY-3A, (2S,3S)-1-acryloyl-3-(4-bromophenyl)-N-(quinolin-8-yl)azetidine-2-carboxamide]",89.25%
2,"C=CC(=O)N1C[C@H](c2ccc(Br)cc2)[C@@H]1C(=O)Nc1cccc2cccnc12 [MY-1B, (2R,3S)-1-acryloyl-3-(4-bromophenyl)-N-(quinolin-8-yl)azetidine-2-carboxamide]",84.75%
3,"C=CC(=O)N1C[C@H](c2ccc(Br)cc2)[C@H]1C(=O)Nc1cccc2cccnc12 [MY-3B, (2S,3S)-1-acryloyl-3-(4-bromophenyl)-N-(quinolin-8-yl)azetidine-2-carboxamide]",93.5%
4,"C=CC(=O)N1C[C@@H](c2ccc(Br)cc2)[C@H]1C(=O)Nc1cccc2cccnc12 [MY-1A, (2S,3R)-1-acryloyl-3-(4-bromophenyl)-N-(quinolin-8-yl)azetidine-2-carboxamide]",87%
